Measurements from the supplement of paper PMC13380429.
Where a name gives a salt, the structure may show the parent alone.

Columns and labels:
Conditions in all cases: 72 h
[1] = test system: Calu-3; assay: cell viability relative to DMSO; higher = less toxic
[2] = test system: Vero E6; assay: as above
[3] = test system: Caco-2; assay: as above
[4] = test system: U2OS; assay: as above
[5] = test system: HepG2; assay: as above
[6] = test system: Calu-3; assay: relative viability EC50 (midpoint between 100% and the lowest measured viability); higher = less toxic
[7] = test system: Vero E6; assay: as above
[8] = test system: Caco-2; assay: as above
[9] = test system: U2OS; assay: as above
[10] = test system: HepG2; assay: as above
[11] = test system: Calu-3; assay: drug sensitivity score (DSS) for viability; higher = more toxic; extreme values may be limits of the assay
[12] = test system: Vero E6; assay: as above
[13] = test system: Caco-2; assay: as above
[14] = test system: U2OS; assay: as above
[15] = test system: HepG2; assay: as above

Row | SMILES | cell viability ([1]; 1 nM) [%] | cell viability ([1]; 10 nM) [%] | cell viability ([1]; 100 nM) [%] | cell viability ([1]; 1000 nM) [%] | cell viability ([1]; 10000 nM) [%] | cell viability ([2]; 1 nM) [%] | cell viability ([2]; 10 nM) [%] | cell viability ([2]; 100 nM) [%] | cell viability ([2]; 1000 nM) [%] | cell viability ([2]; 10000 nM) [%] | cell viability ([3]; 1 nM) [%] | cell viability ([3]; 10 nM) [%] | cell viability ([3]; 100 nM) [%] | cell viability ([3]; 1000 nM) [%] | cell viability ([3]; 10000 nM) [%] | cell viability ([4]; 1 nM) [%] | cell viability ([4]; 10 nM) [%] | cell viability ([4]; 100 nM) [%] | cell viability ([4]; 1000 nM) [%] | cell viability ([4]; 10000 nM) [%] | cell viability ([5]; 1 nM) [%] | cell viability ([5]; 10 nM) [%] | cell viability ([5]; 100 nM) [%] | cell viability ([5]; 1000 nM) [%] | cell viability ([5]; 10000 nM) [%] | relative viability EC50 [6] [µM] | relative viability EC50 [7] [µM] | relative viability EC50 [8] [µM] | relative viability EC50 [9] [µM] | relative viability EC50 [10] [µM] | drug sensitivity score [11] | drug sensitivity score [12] | drug sensitivity score [13] | drug sensitivity score [14] | drug sensitivity score [15]
1 | CC(C)c1cccc2c1OC(C(C)C)C(=S)N2CC(=O)O (stereo not given) [AD-5467] | 104 | 106 | 92 | 91.1 | 107 | 95.7 | 102 | 93.5 | 99.3 | 95.1 | 91.3 | 96.9 | 91.2 | 91.9 | 96.4 | 102 | 98.5 | 98.9 | 96.5 | 98 | 93.6 | 97.2 | 98.5 | 98 | 96.6 | > 10 | > 10 | > 10 | > 10 | > 10 | 0 | 0 | 0 | 0 | 0
2 | O=C(NC1CC1)c1cc(-c2cccs2)on1 [ISX-9] | 93.6 | 105 | 104 | 99.7 | 84.3 | 111 | 96.5 | 108 | 99.4 | 101 | 98.1 | 98.3 | 93.3 | 101 | 87.6 | 97.7 | 98.4 | 98.4 | 102 | 85.5 | 104 | 95.8 | 102 | 103 | 87.6 | > 10 | > 10 | > 10 | > 10 | > 10 | 0.3 | 0 | 0.1 | 0.1 | 0
3 | CCOC(N)=O [urethane] | 105 | 103 | 90.5 | 107 | 112 | 98.9 | 96.7 | 98 | 100 | 104 | 93.5 | 97.3 | 98.4 | 95.5 | 102 | 101 | 102 | 97.6 | 104 | 97.9 | 95.8 | 106 | 85 | 97.4 | 105 | > 10 | > 10 | > 10 | > 10 | > 10 | 0 | 0 | 0 | 0 | 0
4 | CC(=O)NCCCOc1ccc(C(=O)N2CCC(N3C(=O)CCc4ccccc43)CC2)cc1 | 81 | 84.4 | 77.8 | 86.9 | 79 | 105 | 92.6 | 95.6 | 104 | 106 | 104 | 90.1 | 76 | 104 | 88.6 | 98 | 100 | 97.3 | 101 | 95.5 | 113 | 92.3 | 116 | 112 | 107 | > 10 | > 10 | > 10 | > 10 | > 10 | 0 | 0 | 0 | 0 | 0
5 | CCCCOc1cc(C(=O)OCCN(CC)CC)ccc1N [oxybuprocaine] | 96 | 106 | 110 | 107 | 98.7 | 103 | 105 | 101 | 102 | 97.9 | 106 | 96.9 | 98.7 | 100 | 100 | 104 | 96.7 | 105 | 101 | 101 | 105 | 117 | 95.7 | 97.8 | 90 | > 10 | > 10 | > 10 | > 10 | > 10 | 0 | 0 | 0 | 0 | 0
6 | Cc1ncc(C[n+]2csc(CCO)c2C)c(N)n1 [thiamine] | 104 | 91.6 | 99.6 | 104 | 105 | 95.7 | 108 | 98.4 | 102 | 99.7 | 107 | 103 | 100 | 96.9 | 102 | 104 | 104 | 102 | 105 | 99.1 | 96 | 103 | 96.2 | 105 | 88.2 | > 10 | > 10 | > 10 | > 10 | > 10 | 0 | 0 | 0 | 0 | 0
7 | CCOC(=O)c1cnc2c(cnn2CC)c1NN=C(C)C [etazolate] | 102 | 101 | 96.2 | 94.3 | 90.9 | 96.9 | 93.5 | 96.5 | 98.9 | 85.1 | 100 | 96.7 | 102 | 99.6 | 92.9 | 101 | 94.7 | 97.1 | 96.6 | 97.7 | 94.4 | 93 | 96.6 | 106 | 88.4 | > 10 | > 10 | > 10 | > 10 | > 10 | 0 | 0.3 | 0 | 0 | 0
8 | C1CCC(NC2CCCCC2)CC1 [dicyclohexylamine] | 96.6 | 99 | 87.8 | 97.8 | 98 | 99.1 | 96.3 | 97.3 | 100 | 97.5 | 98.7 | 104 | 94.6 | 106 | 94.1 | 99.2 | 99.5 | 99.4 | 104 | 97.7 | 99 | 104 | 97.5 | 111 | 104 | > 10 | > 10 | > 10 | > 10 | > 10 | 0 | 0 | 0 | 0 | 0
9 | O=C1CC[C@@]2(O)[C@H]3Cc4ccc(O)c5c4[C@@]2(CCN3CC2CC2)[C@H]1O5 [NALTREXONE HYDROCHLORIDE] | 97.3 | 100 | 101 | 99.2 | 99 | 98.1 | 106 | 100 | 103 | 103 | 107 | 99 | 95.3 | 99.1 | 90 | 102 | 97.2 | 99.8 | 100 | 101 | 93.8 | 110 | 102 | 95.1 | 92.1 | > 10 | > 10 | > 10 | > 10 | > 10 | 0 | 0 | 0 | 0 | 0
10 | O=C(Nc1ccc(Cl)cc1)Nc1ccc(Cl)c(Cl)c1 [triclocarban] | 97.2 | 93.3 | 97.3 | 88.8 | 100 | 101 | 89.4 | 103 | 86.8 | 95.4 | 82.8 | 59.4 | 94.2 | 104 | 87.9 | 92.6 | 96.5 | 94.2 | 102 | 97.2 | 90 | 88.1 | 99.6 | 98.1 | 97.1 | > 10 | > 10 | > 10 | > 10 | > 10 | 0 | 0 | 0 | 0 | 0
11 | Oc1c(Cl)cc(Cl)c2cccnc12 [chloroxine] | 93.9 | 103 | 91.9 | 100 | 84.2 | 100 | 105 | 96.9 | 93.5 | 96.7 | 98.9 | 102 | 96.6 | 91.4 | 85.3 | 102 | 103 | 96.7 | 101 | 94.4 | 75.3 | 89.9 | 92.2 | 91.6 | 76 | > 10 | > 10 | > 10 | > 10 | > 10 | 0.3 | 0 | 0.5 | 0 | 0
12 | COc1ccc2cc(-c3cc(-c4cc(Cl)cc(Cl)c4)nn3[C@@H](C)c3ccc(C(=O)NCCC(=O)O)cc3)ccc2c1 [MK-0893] | 110 | 94.7 | 97.7 | 96.2 | 91.3 | 97.7 | 102 | 98.8 | 92.3 | 84.5 | 87.9 | 93.7 | 95.8 | 90.1 | 87.6 | 95.8 | 98.2 | 93.9 | 96.8 | 89.6 | 88.5 | 106 | 86.8 | 93.8 | 90 | > 10 | > 10 | > 10 | > 10 | > 10 | 0 | 0.6 | 0 | 0 | 0
13 | Cn1ccnc1S [methimazole] | 93.9 | 97.3 | 100 | 100 | 94.5 | 104 | 99.3 | 102 | 106 | 101 | 99.3 | 84.3 | 99.7 | 86.5 | 101 | 98 | 101 | 98.7 | 99.8 | 98.5 | 109 | 95.4 | 109 | 81.7 | 101 | > 10 | > 10 | > 10 | > 10 | > 10 | 0 | 0 | 0 | 0 | 0
14 | O=C1c2c(O)ccc(O)c2C(=O)c2c(NCCNCCO)ccc(NCCNCCO)c21 [mitoxantrone] | 104 | 98.4 | 65.1 | 46.7 | 28.9 | 98.8 | 96 | 66.5 | 51.4 | 13.6 | 93.3 | 96.5 | 86.2 | 53 | 22.3 | 95.8 | 102 | 88.7 | 30.6 | 0.7 | 93.1 | 82.4 | 53.2 | 21.8 | 1.7 | 0.15 | 0.35 | 0.565 | 0.514 | 0.11 | 14.6 | 13.9 | 10.7 | 14.6 | 21.6
15 | COc1ccc(/C=C\c2cc(OC)c(OC)c(OC)c2)cc1O [combretastatin-A-4] | 100 | 107 | 85.8 | 47.2 | 34.5 | 97.1 | 63.9 | 22.5 | 22.8 | 25.1 | 93.5 | 76.9 | 52.8 | 40.3 | 43.9 | 94.5 | 47.4 | 22.3 | 23.6 | 22.2 | 99.6 | 99.8 | 45.2 | 37.9 | 37.3 | 0.303 | 0.0107 | 0.0175 | 0.006 | 0.0466 | 11.5 | 28.4 | 19.1 | 30.8 | 18.3
